# Assay results reported in US20260274829A1, “NEW E3 UBIQUITIN LIGASE LIGAND, PROTEIN DEGRADATION AGENT AND USE THEREOF” (GLUETACS THERAPEUTICS (SHANGHAI) CO., LTD., priority 2023, published 2026).
# How the values were obtained:
# Format in all cases: cell-based
# WEE1 = target: T1, WEE1 (Homo sapiens, UniProt P30291+Q96SW2); experiment: Western blot degradation of WEE1 in hPBMC
# T1 construct: endogenous in cells; host or cells: hPBMC
# Description: (§1) Conventional Western blot assay was performed to evaluate the effects of the compounds of the present disclosure on the expression of target proteins in cells.
# (§2) • (1) Cell Seeding and Protein Harvesting: The selected cells were processed according to the cell seeding procedure and protein harvesting procedure in Table III-2.
# (§3) • (2) To the collected supernatant, 5×SDS sample loading buffer was added, followed by denaturation at 95° C. for 5 minutes. The denatured samples were then separated by SDS-PAGE electrophoresis on a polyacrylamide gel. Proteins were transferred to a nitrocellulose membrane ([…] NC membrane), blocked with blocking buffer at room temperature for 1 hour, and subjected to antibody incubation and development procedures according to the antibody manufacturer's instructions (Cell Signaling Technology).
# (§4) Half-Maximal Degradation Concentration value (the drug concentration required for degrading proteins by 50%, abbreviated as DC50) reads method: comparing the grayscale values of Western blot bands from drug-treated samples with those from blank DMSO-treated controls, and identifying the drug concentration range at which the grayscale value is half that of the DMSO-treated control bands.
# (§5) DC50 values can be calculated using ImageJ software to measure grayscale values of Western blot bands from drug-treated samples. The concentration-response curve is fitted to estimate the drug concentration corresponding to half the grayscale value.
# (§6) Target protein remaining (0%) refers to the percentage of target protein remaining in hPBMC cells after treatment with protein degrader compounds.
# (§7) Calculation method for target protein remaining (0%): Use ImageJ software to measure grayscale values of Western blot bands from drug (protein degrader)-treated samples. The grayscale value of drug-treated bands is divided by that of internal control protein bands, and the resulting quotient is normalized to obtain the relative percentage of remaining target protein after protein degrader treatment.
# IKZF1 = target: T2, IKZF1 (Homo sapiens, UniProt Q13422+Q96SW2); experiment: Western blot degradation of IKZF1 in hPBMC
# T2 construct: endogenous in cells; host or cells: hPBMC
# T2 sequence (Q13422 whole entry): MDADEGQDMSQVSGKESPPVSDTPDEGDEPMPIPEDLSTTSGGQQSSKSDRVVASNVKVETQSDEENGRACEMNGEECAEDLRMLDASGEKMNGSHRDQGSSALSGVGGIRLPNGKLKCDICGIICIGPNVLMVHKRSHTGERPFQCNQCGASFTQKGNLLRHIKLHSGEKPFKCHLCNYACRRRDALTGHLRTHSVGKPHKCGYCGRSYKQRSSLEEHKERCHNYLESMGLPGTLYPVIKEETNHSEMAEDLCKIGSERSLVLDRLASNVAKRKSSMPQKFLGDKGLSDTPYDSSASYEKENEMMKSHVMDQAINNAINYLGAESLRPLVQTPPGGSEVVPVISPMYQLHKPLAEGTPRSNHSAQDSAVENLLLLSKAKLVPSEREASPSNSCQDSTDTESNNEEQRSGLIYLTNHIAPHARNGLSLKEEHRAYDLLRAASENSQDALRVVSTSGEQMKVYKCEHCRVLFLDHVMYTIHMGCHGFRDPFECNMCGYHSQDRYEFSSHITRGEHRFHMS
# T2 sequence (Q96SW2 whole entry): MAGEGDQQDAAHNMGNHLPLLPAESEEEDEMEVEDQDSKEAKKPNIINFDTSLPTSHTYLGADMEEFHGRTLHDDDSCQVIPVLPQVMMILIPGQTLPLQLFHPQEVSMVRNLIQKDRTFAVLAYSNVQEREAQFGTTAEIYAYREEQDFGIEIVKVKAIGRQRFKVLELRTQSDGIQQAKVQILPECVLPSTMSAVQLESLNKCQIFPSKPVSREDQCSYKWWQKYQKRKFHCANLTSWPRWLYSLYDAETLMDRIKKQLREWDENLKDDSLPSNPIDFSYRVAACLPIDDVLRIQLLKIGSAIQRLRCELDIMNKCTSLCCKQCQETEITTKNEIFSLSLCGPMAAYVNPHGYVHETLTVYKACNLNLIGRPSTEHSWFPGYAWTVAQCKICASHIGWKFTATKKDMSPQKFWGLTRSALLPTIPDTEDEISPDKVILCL
# T2 sequence (Q16531 whole entry partner): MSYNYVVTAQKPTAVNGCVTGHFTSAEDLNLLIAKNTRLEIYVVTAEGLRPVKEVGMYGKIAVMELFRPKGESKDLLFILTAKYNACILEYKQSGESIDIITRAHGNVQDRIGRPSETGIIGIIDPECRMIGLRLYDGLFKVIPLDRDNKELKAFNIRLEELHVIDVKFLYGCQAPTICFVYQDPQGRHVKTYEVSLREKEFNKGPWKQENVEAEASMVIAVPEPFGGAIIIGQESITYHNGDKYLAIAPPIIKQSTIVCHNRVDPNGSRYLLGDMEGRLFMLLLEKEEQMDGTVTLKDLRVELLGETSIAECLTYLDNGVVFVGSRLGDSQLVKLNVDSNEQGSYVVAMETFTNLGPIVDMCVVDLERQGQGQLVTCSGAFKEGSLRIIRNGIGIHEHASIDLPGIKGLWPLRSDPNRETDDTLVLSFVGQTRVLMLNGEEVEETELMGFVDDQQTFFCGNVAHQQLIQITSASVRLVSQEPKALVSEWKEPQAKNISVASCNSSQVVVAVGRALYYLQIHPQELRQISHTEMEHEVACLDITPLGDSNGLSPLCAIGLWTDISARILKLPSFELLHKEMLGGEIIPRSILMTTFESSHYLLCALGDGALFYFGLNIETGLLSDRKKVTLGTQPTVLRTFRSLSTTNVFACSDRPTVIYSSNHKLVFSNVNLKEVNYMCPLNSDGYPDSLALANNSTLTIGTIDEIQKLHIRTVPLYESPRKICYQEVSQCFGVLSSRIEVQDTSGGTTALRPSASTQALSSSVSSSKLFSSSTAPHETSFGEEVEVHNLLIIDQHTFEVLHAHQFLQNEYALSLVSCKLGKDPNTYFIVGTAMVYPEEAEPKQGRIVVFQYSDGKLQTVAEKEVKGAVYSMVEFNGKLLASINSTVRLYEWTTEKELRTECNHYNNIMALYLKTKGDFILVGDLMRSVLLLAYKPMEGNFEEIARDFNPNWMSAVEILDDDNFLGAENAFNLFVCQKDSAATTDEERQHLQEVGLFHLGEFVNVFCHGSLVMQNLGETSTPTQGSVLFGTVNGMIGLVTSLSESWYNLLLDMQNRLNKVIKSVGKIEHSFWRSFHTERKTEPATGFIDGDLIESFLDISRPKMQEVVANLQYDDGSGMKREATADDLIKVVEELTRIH
# Description: as §1, §2, §3, §4, §5, §6, §7
# IKZF2 = target: T3, IKZF2 (Homo sapiens, UniProt Q96SW2+Q9UKS7); experiment: Western blot degradation of IKZF2 in hPBMC
# T3 construct: endogenous in cells; host or cells: hPBMC
# T3 sequence (Q9UKS7 whole entry): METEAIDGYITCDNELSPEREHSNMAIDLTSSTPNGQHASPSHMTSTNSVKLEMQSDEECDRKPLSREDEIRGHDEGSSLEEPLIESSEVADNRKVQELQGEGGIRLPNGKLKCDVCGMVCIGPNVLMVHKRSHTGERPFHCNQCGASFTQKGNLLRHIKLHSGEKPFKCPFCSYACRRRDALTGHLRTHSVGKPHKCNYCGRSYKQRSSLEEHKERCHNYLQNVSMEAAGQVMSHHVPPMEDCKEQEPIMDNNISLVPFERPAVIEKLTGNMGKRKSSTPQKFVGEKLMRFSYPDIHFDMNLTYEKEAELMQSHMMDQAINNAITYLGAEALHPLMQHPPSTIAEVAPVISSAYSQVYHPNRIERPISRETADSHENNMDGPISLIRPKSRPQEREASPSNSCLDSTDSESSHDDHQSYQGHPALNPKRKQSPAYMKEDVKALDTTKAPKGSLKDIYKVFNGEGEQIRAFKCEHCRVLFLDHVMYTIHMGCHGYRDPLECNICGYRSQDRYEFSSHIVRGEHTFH
# T3 sequence (Q96SW2 whole entry): as the sequence (Q96SW2 whole entry) above
# T3 sequence (Q16531 whole entry partner): as the sequence (Q16531 whole entry partner) above
# Description: as §1, §2, §3, §4, §5, §6, §7
# IKZF3 = target: T4, IKZF3 (Homo sapiens, UniProt Q96SW2+Q9UKT9); experiment: Western blot degradation of IKZF3 in hPBMC
# T4 construct: endogenous in cells; host or cells: hPBMC
# Description: as §1, §2, §3, §4, §5, §6, §7
# CK1a = target: T5, CK1a (Homo sapiens, UniProt P48729+Q96SW2); experiment: Western blot degradation of CK1a in hPBMC
# T5 construct: endogenous in cells; host or cells: hPBMC
# T5 sequence (P48729 whole entry): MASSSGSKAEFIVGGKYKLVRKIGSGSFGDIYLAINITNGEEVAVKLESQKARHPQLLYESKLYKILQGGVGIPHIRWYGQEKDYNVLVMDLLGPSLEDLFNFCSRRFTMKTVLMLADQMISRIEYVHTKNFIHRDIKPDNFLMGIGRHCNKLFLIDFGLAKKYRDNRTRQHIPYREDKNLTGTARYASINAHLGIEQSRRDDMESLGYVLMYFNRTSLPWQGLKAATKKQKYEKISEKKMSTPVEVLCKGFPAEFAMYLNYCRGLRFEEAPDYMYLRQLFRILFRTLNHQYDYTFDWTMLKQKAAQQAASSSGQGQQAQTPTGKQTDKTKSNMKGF
# T5 sequence (Q96SW2 whole entry): as the sequence (Q96SW2 whole entry) above
# T5 sequence (Q16531 whole entry partner): as the sequence (Q16531 whole entry partner) above
# Description: as §1, §2, §3, §4, §5, §6, §7
# GSPT1 = target: T6, GSPT1 (Homo sapiens, UniProt P15170+Q96SW2); experiment: Western blot degradation of GSPT1 in hPBMC
# T6 construct: endogenous in cells; host or cells: hPBMC
# T6 sequence (P15170 whole entry): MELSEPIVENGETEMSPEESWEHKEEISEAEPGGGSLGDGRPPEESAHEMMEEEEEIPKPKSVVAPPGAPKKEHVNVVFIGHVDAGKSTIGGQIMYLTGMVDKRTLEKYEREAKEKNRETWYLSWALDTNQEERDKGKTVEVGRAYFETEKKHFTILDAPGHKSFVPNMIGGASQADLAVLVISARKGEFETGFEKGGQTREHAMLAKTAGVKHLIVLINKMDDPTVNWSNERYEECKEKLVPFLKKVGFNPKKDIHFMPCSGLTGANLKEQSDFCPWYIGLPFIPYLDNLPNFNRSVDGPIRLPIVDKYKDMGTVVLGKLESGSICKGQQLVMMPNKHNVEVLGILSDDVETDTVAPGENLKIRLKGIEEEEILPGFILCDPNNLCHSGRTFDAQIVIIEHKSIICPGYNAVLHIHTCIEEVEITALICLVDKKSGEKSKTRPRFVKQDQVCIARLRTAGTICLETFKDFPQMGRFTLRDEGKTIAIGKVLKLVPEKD
# T6 sequence (Q96SW2 whole entry): as the sequence (Q96SW2 whole entry) above
# T6 sequence (Q16531 whole entry partner): as the sequence (Q16531 whole entry partner) above
# Description: as §1, §2, §3, §4, §5, §6, §7
# T1 sequence (P30291 whole entry): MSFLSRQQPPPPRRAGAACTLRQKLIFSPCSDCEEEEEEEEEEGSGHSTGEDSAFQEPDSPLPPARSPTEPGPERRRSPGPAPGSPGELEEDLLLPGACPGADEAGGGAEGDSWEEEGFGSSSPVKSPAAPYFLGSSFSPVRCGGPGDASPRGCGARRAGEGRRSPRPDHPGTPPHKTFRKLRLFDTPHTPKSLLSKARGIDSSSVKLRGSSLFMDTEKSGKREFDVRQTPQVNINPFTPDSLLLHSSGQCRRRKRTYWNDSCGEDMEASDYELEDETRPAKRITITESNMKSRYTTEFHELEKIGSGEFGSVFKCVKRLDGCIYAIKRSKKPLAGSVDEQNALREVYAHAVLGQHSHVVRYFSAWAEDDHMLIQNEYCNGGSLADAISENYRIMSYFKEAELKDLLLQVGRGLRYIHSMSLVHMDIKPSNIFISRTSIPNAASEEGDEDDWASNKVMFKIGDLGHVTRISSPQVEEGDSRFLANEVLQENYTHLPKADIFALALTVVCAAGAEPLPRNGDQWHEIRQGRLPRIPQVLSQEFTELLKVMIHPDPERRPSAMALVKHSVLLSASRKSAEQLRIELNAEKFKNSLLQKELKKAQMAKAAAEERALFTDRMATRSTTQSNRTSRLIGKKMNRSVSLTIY
# T1 sequence (Q96SW2 whole entry): as the sequence (Q96SW2 whole entry) above
# T1 sequence (Q16531 whole entry partner): as the sequence (Q16531 whole entry partner) above
Structure (SMILES),Degradation of substrate protein WEE1 (substrate protein remaining %) (WEE1),Degradation of substrate protein IKZF1 (substrate protein remaining %) (IKZF1),Degradation of substrate protein IKZF2 (substrate protein remaining %) (IKZF2),Degradation of substrate protein IKZF3 (substrate protein remaining %) (IKZF3),Degradation of substrate protein CK1a (substrate protein remaining %) (CK1a),Degradation of substrate protein GSPT1 (substrate protein remaining %) (GSPT1)
"O=C1CCC(c2cnc(CO)c(F)c2)C(=O)N1 (stereo not drawn) [GT-07049, 3-(5-fluoro-6-(hydroxymethyl)pyridin-3-yl)piperidine-2,6-dione]",B (B is defined as substrate protein remaining % > 80%),B (B is defined as substrate protein remaining % > 80%),A (A is defined as 0% ≤ substrate protein remaining % ≤ 80%),A (A is defined as 0% ≤ substrate protein remaining % ≤ 80%),A (A is defined as 0% ≤ substrate protein remaining % ≤ 80%),A (A is defined as 0% ≤ substrate protein remaining % ≤ 80%)
"O=C1CCN(c2cncc(CCl)c2)C(=O)N1 [GT-07047, 1-(5-(chloromethyl)pyridin-3-yl)dihydropyrimidine-2,4(1H,3H)-dione]",B (B is defined as substrate protein remaining % > 80%),A (A is defined as 0% ≤ substrate protein remaining % ≤ 80%),A (A is defined as 0% ≤ substrate protein remaining % ≤ 80%),A (A is defined as 0% ≤ substrate protein remaining % ≤ 80%),A (A is defined as 0% ≤ substrate protein remaining % ≤ 80%),B (B is defined as substrate protein remaining % > 80%)
"O=C1CCC(c2ccc(CO)nc2)C(=O)N1 (stereo not drawn) [GT-07010, 3-(6-(hydroxymethyl)pyridin-3-yl)piperidine-2,6-dione]",B (B is defined as substrate protein remaining % > 80%),B (B is defined as substrate protein remaining % > 80%),B (B is defined as substrate protein remaining % > 80%),A (A is defined as 0% ≤ substrate protein remaining % ≤ 80%),A (A is defined as 0% ≤ substrate protein remaining % ≤ 80%),A (A is defined as 0% ≤ substrate protein remaining % ≤ 80%)
"O=C1CCC(Nc2cnccc2CO)C(=O)N1 (stereo not drawn) [GT-07559, 3-((4-(hydroxymethyl)pyridin-3-yl)amino)piperidine-2,6-dione]",A (A is defined as 0% ≤ substrate protein remaining % ≤ 80%),A (A is defined as 0% ≤ substrate protein remaining % ≤ 80%),A (A is defined as 0% ≤ substrate protein remaining % ≤ 80%),A (A is defined as 0% ≤ substrate protein remaining % ≤ 80%),A (A is defined as 0% ≤ substrate protein remaining % ≤ 80%),A (A is defined as 0% ≤ substrate protein remaining % ≤ 80%)
"O=Cc1ccncc1NC1CCC(=O)NC1=O (stereo not drawn) [GT-07804, 3-((2,6-dioxopiperidin-3-yl)amino)isonicotinaldehyde]",B (B is defined as substrate protein remaining % > 80%),B (B is defined as substrate protein remaining % > 80%),A (A is defined as 0% ≤ substrate protein remaining % ≤ 80%),A (A is defined as 0% ≤ substrate protein remaining % ≤ 80%),B (B is defined as substrate protein remaining % > 80%),B (B is defined as substrate protein remaining % > 80%)
"O=Cc1cncc(NC2CCC(=O)NC2=O)c1 (stereo not drawn) [GT-07554, 5-((2,6-dioxopiperidin-3-yl)amino)nicotinaldehyde]",A (A is defined as 0% ≤ substrate protein remaining % ≤ 80%),A (A is defined as 0% ≤ substrate protein remaining % ≤ 80%),A (A is defined as 0% ≤ substrate protein remaining % ≤ 80%),A (A is defined as 0% ≤ substrate protein remaining % ≤ 80%),A (A is defined as 0% ≤ substrate protein remaining % ≤ 80%),B (B is defined as substrate protein remaining % > 80%)
"CC(C)(C)[Si](C)(C)OCc1cncc(NC2CCC(=O)NC2=O)c1 (stereo not drawn) [GT-07449, 3-((5-(((tert-butyldimethylsilyl)oxy)methyl)pyridin-3-yl)amino)piperidine-2,6-dione]",B (B is defined as substrate protein remaining % > 80%),B (B is defined as substrate protein remaining % > 80%),A (A is defined as 0% ≤ substrate protein remaining % ≤ 80%),B (B is defined as substrate protein remaining % > 80%),B (B is defined as substrate protein remaining % > 80%),B (B is defined as substrate protein remaining % > 80%)
"NCc1ccc(N2CCC(=O)NC2=O)nc1 [GT-07012, 1-(5-(aminomethyl)pyridin-2-yl)dihydropyrimidine-2,4(1H,3H)-dione]",A (A is defined as 0% ≤ substrate protein remaining % ≤ 80%),B (B is defined as substrate protein remaining % > 80%),B (B is defined as substrate protein remaining % > 80%),A (A is defined as 0% ≤ substrate protein remaining % ≤ 80%),B (B is defined as substrate protein remaining % > 80%),A (A is defined as 0% ≤ substrate protein remaining % ≤ 80%)
"O=C1CCC(Nc2ccc(CO)cn2)C(=O)N1 (stereo not drawn) [GT-07551, 3-((5-(hydroxymethyl)pyridin-2-yl)amino)piperidine-2,6-dione]",A (A is defined as 0% ≤ substrate protein remaining % ≤ 80%),B (B is defined as substrate protein remaining % > 80%),A (A is defined as 0% ≤ substrate protein remaining % ≤ 80%),B (B is defined as substrate protein remaining % > 80%),B (B is defined as substrate protein remaining % > 80%),B (B is defined as substrate protein remaining % > 80%)
"O=C1CCC(c2ccc(CO)cn2)C(=O)N1 (stereo not drawn) [GT-07075, 3-(5-(hydroxymethyl)pyridin-2-yl)piperidine-2,6-dione]",B (B is defined as substrate protein remaining % > 80%),B (B is defined as substrate protein remaining % > 80%),A (A is defined as 0% ≤ substrate protein remaining % ≤ 80%),A (A is defined as 0% ≤ substrate protein remaining % ≤ 80%),B (B is defined as substrate protein remaining % > 80%),A (A is defined as 0% ≤ substrate protein remaining % ≤ 80%)
"O=Cc1ccc(NC2CCC(=O)NC2=O)cn1 (stereo not drawn) [GT-07640, 5-((2,6-dioxopiperidin-3-yl)amino)picolinaldehyde]",A (A is defined as 0% ≤ substrate protein remaining % ≤ 80%),A (A is defined as 0% ≤ substrate protein remaining % ≤ 80%),A (A is defined as 0% ≤ substrate protein remaining % ≤ 80%),A (A is defined as 0% ≤ substrate protein remaining % ≤ 80%),B (B is defined as substrate protein remaining % > 80%),A (A is defined as 0% ≤ substrate protein remaining % ≤ 80%)
